From article PMC4904354 (Journal of Cerebral Blood Flow & Metabolism, 2015)
Read-outs that look alike come from different tables or passages of the source.

Legend:
[1] = cited from earlier work
[2] = Plasma metabolite analysis of [^11C]GMOM; assay type: in vivo, human; settings: for parent fraction in plasma: mean ± SD, all scans N = 15
[3] = tested on: N-methyl-D-aspartate receptor; assay type: in vivo, human; settings: for K1, rate constant of transport, mean (SD) / Ki, net influx rate constant, mean (SD) / VND(K1/k2), nondisplaceable distribution volume, mean (SD): 2T3k_VB model, 90 min data
NMDA receptor [4] = settings: cited from earlier work
[5] = target: NMDA receptor ion-channel; settings: read-out: apparent affinity value against [^3H]MK-801 (Ki); no reference given; cited from earlier work
[6] = S-ketamine challenge: plasma concentration and tolerability; assay type: in vivo, human
NMDA receptor [7] = settings: cited from earlier work; remark: listed apart in the source
[8] = cerebellum, after S-ketamine 0.3 mgkg^−1 i.v., N = 6
[9] = followed by prolonged modest decrease until 90 min
[10] = frontal cortex, baseline, N = 9
[11] = occipital cortex, baseline, N = 9
[12] = parietal cortex, baseline, N = 9
[13] = striatum, after S-ketamine 0.3 mgkg^−1 i.v., N = 6
[14] = temporal cortex, baseline, N = 9
[15] = thalamus, after S-ketamine 0.3 mgkg^−1 i.v., N = 6
[16] = whole brain gray matter, baseline, N = 9

Compound: CSc1ccc(Cl)c(NC(=N)N(C)c2cccc(O[11CH3])c2)c1 [[^11C]GMOM, N-(2-chloro-5-thiomethylphenyl)-N′-(3-[^11C]methoxy-phenyl)-N′-methylguanidine]
- log P [1]: 2.34
- parent fraction in plasma ([2]; at 5 min p.i.): 0.80 ± 0.06
- mean parent fraction remaining in plasma ([2]; at 20 min postinjection): 50%
- parent fraction in plasma ([2]; at 60 min p.i.): 0.21 ± 0.08
- nonpolar metabolites fraction in plasma ([2]; at 90 min p.i.): 1.5 ± 2.0%
- K1, rate constant of transport, mean (SD) [3, 8]: 0.45 (0.06) min^−1
- Ki, net influx rate constant, mean (SD) [3, 8]: 0.005 (0.008) min^−1
- VND(K1/k2), nondisplaceable distribution volume, mean (SD) [3, 8]: 9.37 (0.98)
- K1, rate constant of transport, mean (SD) ([3]; cerebellum, baseline, N = 9): 0.46 (0.07) min^−1
- Ki, net influx rate constant, mean (SD) ([3]; cerebellum, baseline, N = 9): 0.014 (0.010) min^−1
- VND(K1/k2), nondisplaceable distribution volume, mean (SD) ([3]; cerebellum, baseline, N = 9): 8.43 (2.02)
- time of peak uptake in brain TACs [3, 9]: around 20 min
- K1, rate constant of transport, mean (SD) [3, 10]: 0.48 (0.07) min^−1
- Ki, net influx rate constant, mean (SD) [3, 10]: 0.023 (0.014) min^−1
- VND(K1/k2), nondisplaceable distribution volume, mean (SD) [3, 10]: 8.54 (2.00)
- K1, rate constant of transport, mean (SD) ([3]; hippocampus, baseline, N = 9): 0.36 (0.07) min^−1
- Ki, net influx rate constant, mean (SD) ([3]; hippocampus, baseline, N = 9): 0.028 (0.012) min^−1
- VND(K1/k2), nondisplaceable distribution volume, mean (SD) ([3]; hippocampus, baseline, N = 9): 7.82 (2.25)
- K1, rate constant of transport, mean (SD) [3, 11]: 0.47 (0.04) min^−1
- Ki, net influx rate constant, mean (SD) [3, 11]: 0.021 (0.012) min^−1
- VND(K1/k2), nondisplaceable distribution volume, mean (SD) [3, 11]: 8.53 (1.73)
- K1, rate constant of transport, mean (SD) [3, 12]: 0.46 (0.05) min^−1
- Ki, net influx rate constant, mean (SD) [3, 12]: 0.021 (0.014) min^−1
- VND(K1/k2), nondisplaceable distribution volume, mean (SD) [3, 12]: 8.81 (1.98)
- K1, rate constant of transport, mean (SD) [3, 13]: 0.50 (0.08) min^−1
- Ki, net influx rate constant, mean (SD) [3, 13]: 0.007 (0.007) min^−1
- VND(K1/k2), nondisplaceable distribution volume, mean (SD) [3, 13]: 9.88 (0.86)
- K1, rate constant of transport, mean (SD) ([3]; striatum, baseline, N = 9): 0.50 (0.06) min^−1
- Ki, net influx rate constant, mean (SD) ([3]; striatum, baseline, N = 9): 0.021 (0.015) min^−1
- VND(K1/k2), nondisplaceable distribution volume, mean (SD) ([3]; striatum, baseline, N = 9): 9.15 (1.85)
- K1, rate constant of transport, mean (SD) [3, 14]: 0.41 (0.06) min^−1
- Ki, net influx rate constant, mean (SD) [3, 14]: 0.020 (0.012) min^−1
- VND(K1/k2), nondisplaceable distribution volume, mean (SD) [3, 14]: 8.63 (2.06)
- K1, rate constant of transport, mean (SD) [3, 15]: 0.52 (0.09) min^−1
- Ki, net influx rate constant, mean (SD) [3, 15]: 0.006 (0.007) min^−1
- VND(K1/k2), nondisplaceable distribution volume, mean (SD) [3, 15]: 11.32 (1.58)
- K1, rate constant of transport, mean (SD) ([3]; thalamus, baseline, N = 9): 0.50 (0.08) min^−1
- Ki, net influx rate constant, mean (SD) ([3]; thalamus, baseline, N = 9): 0.024 (0.019) min^−1
- VND(K1/k2), nondisplaceable distribution volume, mean (SD) ([3]; thalamus, baseline, N = 9): 10.14 (2.56)
- K1, rate constant of transport, mean (SD) [3, 16]: 0.45 (0.05) min^−1
- Ki, net influx rate constant, mean (SD) [3, 16]: 0.021 (0.012) min^−1
- VND(K1/k2), nondisplaceable distribution volume, mean (SD) [3, 16]: 8.47 (1.88)

Compound: CSc1cccc(N(C)C(N)=Nc2cc(SCCF)ccc2Cl)c1 [[[18]F]GE-179]
- Kd (NMDA receptor [4]): 2.4 nM

Compound: CN[C@]1(c2ccccc2Cl)CCCCC1=O [S-ketamine]
- Ki [5]: ~1000 nM
- mean plasma level of S-ketamine during the blocking scans ([6]; 0.3 mgkg^−1 i.v., pseudo-steady state, healthy volunteers): 56.2 ngml^−1
- tolerability of the administered dose during scans ([6]; 0.3 mgkg^−1 i.v., healthy volunteers): able to tolerate
- mean S-ketamine plasma concentration ([6]; at the end of the scan, six subjects, 0.3 mg kg^−1 i.v. pseudo-steady state): 38 ng/mL

Compound: CSc1cccc(N(C)C(N)=Nc2cc(SCC[18F])ccc2Cl)c1 [[[18]F]GE-179]
- log D7.4 ([1]; pH 7.4): 2.49
- mean parent fraction remaining in plasma (NMDA receptor [7]; at 20 min postinjection): 50%
- time of peak uptake in brain TACs (NMDA receptor [7]; [9]): around 20 min

Compound: CSc1cccc(N(C)C(=N)Nc2cc(SC)ccc2Cl)c1 [[^11C]CNS5161]
- Kd (NMDA receptor [4]): 1.9 ± 0.3 nM

Compound: CSc1ccc(Cl)c(NC(=N)N(C)c2cccc(S[11CH3])c2)c1 [[^11C]CNS5161]
- log P [1]: 1.92

Compound: CN(C(=N)Nc1cccc2ccccc12)c1cccc(I)c1 [[^123I]CNS1261]
- Kd (NMDA receptor [4]): 4.2 ± 0.4 nM
